Experimental data: US20110152093A1, “Herbicidal compositions comprising flufenacet” (Bayer CropScience AG, priority 2009, published 2011)

Columns and labels:
Format in all cases: in vivo
[1] = tested on: ALOMY sensitive (Alopecurus myosuroides); test: PE action on resistant weed biotypes, test method 8; conditions: PE application; g of AS/ha: (A) 90, (B) 1200, (C) 140, (A)+(B)+(C) 90 + 1200 + 140, iodosulfuron 10
Experimental: (§1) In the standard design of the test, seeds of various broad-leaved weed and weed grass biotypes (origins) were sown in a 8-13 cm diameter pot filled with natural soil of a standard field soil (loamy silt; non-sterile) and covered with a covering soil layer of about 1 cm. The pots were then cultivated in a greenhouse (12-16 h of light, temperature day 20-22° C., night 15-18° C.) until the time of application. The pots were treated on a laboratory track sprayer with spray liquors comprising the compositions according to the invention, mixtures of the prior art or components used individually. Application of the active compounds or active compound combinations formulated as WG, WP, EC or otherwise was carried out at the appropriate growth stages of the plants. The application rate for the spray application was 100-600 l of water/ha. After the treatment, the plants were returned to the greenhouses.
(§2) About 3 weeks after the application, the soil action or/and foliar action was assessed visually according to a scale of 0-100% in comparison to an untreated comparative group: 0%=no noticeable effect compared to the untreated comparative group; 100%=full effect compared to the untreated comparative group.
(§3) (notes: the term “seeds” also includes vegetative propagation forms such as, for example, rhizome pieces; abbreviations used: h light=hours of illumination, g of AS/ha=gram of active substance per hectare, l/ha=liter per hectare, S=sensitive, R=resistant) • 1. Pre-emergence action against weeds: seeds of various broad-leaved weed and weed grass biotypes (origins) were sown in a 8-13 cm diameter pot filled with natural soil of a standard field soil (loamy silt; non-sterile) and covered with a covering soil layer of about 1 cm. The pots were then cultivated in a greenhouse (12-16 h of light, temperature day 20-22° C., night 15-18° C.) until the time of application. The pots were treated at the BBCH stage 00-10 of the seeds/plants on a laboratory track sprayer with spray liquors comprising the compositions according to the invention, mixtures or components used individually, as WG, WP, EC or other formulations. The application rate for the spray application was 100-600 l of water/ha. After the treatment, the plants were returned to the greenhouses and, when required, treated with fertilizer and watered. • 2. Post-emergence action against weeds: seeds of various broad-leaved weed and weed grass biotypes (origins) were sown in a 8-13 cm diameter pot filled with natural soil of a standard field soil (loamy silt; non-sterile) and covered with a covering soil layer of about 1 cm. The pots were then cultivated in a greenhouse (12-16 h of light, temperature day 20-22° C., night 15-18° C.) until the time of application. The pots were treated at various BBCH stages between 11-25 of the seeds/plants, i.e. generally between two to three weeks after the start of the cultivation, on a laboratory track sprayer with spray liquors comprising the compositions according to the invention, mixtures or components used individually, as WG, WP, EC or other formulations. The application rate for the spray application was 100-600 l of water/ha. After the treatment, the plants were returned to the greenhouses and, when required, treated with fertilizer and watered. • 3. Selective pre-emergence action: seeds of various crop species (origins) were sown in a 8-13 cm diameter pot filled with natural soil of a standard field soil (loamy silt; non-sterile) and covered with a covering soil layer of about 1 cm. The pots were then cultivated in a greenhouse (12-16 h of light, temperature day 20-22° C., night 15-18° C.) until the time of application. The pots were treated at the BBCH stage 00-10 of the seeds/plants on a laboratory track sprayer with spray liquors comprising the compositions according to the invention, mixtures or components used individually, as WG, WP, EC or other formulations. The application rate for the spray application was 100-600 l of water/ha. […]

[2] = tested on: ALOMY resistant (Alopecurus myosuroides); test: as above; conditions: PE application; g of AS/ha: (A) 90, (B) 1200, (C) 140, (A)+(B)+(C) 90 + 1200 + 140, iodosulfuron 10
Experimental: as §1, §2, §3

[3] = tested on: HORVS (Hordeum vulgare, summer barley); test: Action under various soil conditions (soil types), test method 7, crop compatibility; conditions: g of AS/ha: (A) 90, (B) 1200, (C) 140, (A)+(B)+(C) 90 + 1200 + 140
Experimental: as §1, §2
(§4) (notes: the term “seeds” also includes vegetative propagation forms such as, for example, rhizome pieces; abbreviations used: h light=hours of illumination, g of AS/ha=gram of active substance per hectare, l/ha=liter per hectare, S=sensitive, R=resistant) • 1. Pre-emergence action against weeds: seeds of various broad-leaved weed and weed grass biotypes (origins) were sown in a 8-13 cm diameter pot filled with natural soil of a standard field soil (loamy silt; non-sterile) and covered with a covering soil layer of about 1 cm. The pots were then cultivated in a greenhouse (12-16 h of light, temperature day 20-22° C., night 15-18° C.) until the time of application. The pots were treated at the BBCH stage 00-10 of the seeds/plants on a laboratory track sprayer with spray liquors comprising the compositions according to the invention, mixtures or components used individually, as WG, WP, EC or other formulations. The application rate for the spray application was 100-600 l of water/ha. After the treatment, the plants were returned to the greenhouses and, when required, treated with fertilizer and watered. • 2. Post-emergence action against weeds: seeds of various broad-leaved weed and weed grass biotypes (origins) were sown in a 8-13 cm diameter pot filled with natural soil of a standard field soil (loamy silt; non-sterile) and covered with a covering soil layer of about 1 cm. The pots were then cultivated in a greenhouse (12-16 h of light, temperature day 20-22° C., night 15-18° C.) until the time of application. The pots were treated at various BBCH stages between 11-25 of the seeds/plants, i.e. generally between two to three weeks after the start of the cultivation, on a laboratory track sprayer with spray liquors comprising the compositions according to the invention, mixtures or components used individually, as WG, WP, EC or other formulations. The application rate for the spray application was 100-600 l of water/ha. After the treatment, the plants were returned to the greenhouses and, when required, treated with fertilizer and watered. • 3. […]

AVEFA (Avena fatua) = test: PE action at different soil pH values, test method 10; conditions: PE application, g of AS/ha: (A) 90, (B) 1200, (C) 140, (A)+(B)+(C) 90 + 1200 + 140
Experimental: as §1, §2

[4] = tested on: HORVS (Hordeum vulgare, summer barley); test: Selective post-emergence action (crop compatibility), greenhouse trial, test method 4; conditions: PO application; g of AS/ha: (A) 240, (B) 1200, (C) 140, (A)+(B)+(C) 240 + 1200 + 140
Experimental: as §1, §2
(notes: the term “seeds” also includes vegetative propagation forms such as, for example, rhizome pieces; abbreviations used: h light=hours of illumination, g of AS/ha=gram of active substance per hectare, l/ha=liter per hectare, S=sensitive, R=resistant) • 1. Pre-emergence action against weeds: seeds of various broad-leaved weed and weed grass biotypes (origins) were sown in a 8-13 cm diameter pot filled with natural soil of a standard field soil (loamy silt; non-sterile) and covered with a covering soil layer of about 1 cm. The pots were then cultivated in a greenhouse (12-16 h of light, temperature day 20-22° C., night 15-18° C.) until the time of application. […]

VIOAR (Viola arvensis) = test: Post-emergence (PO) action against weeds, greenhouse trial, test method 2; conditions: PO application; g of AS/ha: (A) 240, (B) 1200, (C) 140, (A)+(B)+(C) 240 + 1200 + 140
Experimental: as §1, §2, §4

POAAN (Poa annua) = test: as above; conditions: PO application; g of AS/ha: (A) 240, (B) 1200, (C) 140, (A)+(B)+(C) 240 + 1200 + 140
Experimental: as §1, §2, §4

LOLPE (Lolium perenne) [5] = test: Pre-sowing application action against weeds (7 days prior to sowing), test method 5; conditions: application 7 days prior to sowing; g of AS/ha: (A) 90, (B) 1200, (C) 140, (A)+(B)+(C) 90 + 1200 + 140
Experimental: as §1, §2
(notes: the term “seeds” also includes vegetative propagation forms such as, for example, rhizome pieces; abbreviations used: h light=hours of illumination, g of AS/ha=gram of active substance per hectare, l/ha=liter per hectare, S=sensitive, R=resistant) • 1. Pre-emergence action against weeds: seeds of various broad-leaved weed and weed grass biotypes (origins) were sown in a 8-13 cm diameter pot filled with natural soil of a standard field soil (loamy silt; non-sterile) and covered with a covering soil layer of about 1 cm. The pots were then cultivated in a greenhouse (12-16 h of light, temperature day 20-22° C., night 15-18° C.) until the time of application. The pots were treated at the BBCH stage 00-10 of the seeds/plants on a laboratory track sprayer with spray liquors comprising the compositions according to the invention, mixtures or components used individually, as WG, WP, EC or other formulations. The application rate for the spray application was 100-600 l of water/ha. After the treatment, the plants were returned to the greenhouses and, when required, treated with fertilizer and watered. • 2. Post-emergence action against weeds: seeds of various broad-leaved weed and weed grass biotypes (origins) were sown in a 8-13 cm diameter pot filled with natural soil of a standard field soil (loamy silt; non-sterile) and covered with a covering soil layer of about 1 cm. The pots were then cultivated in a greenhouse (12-16 h of light, temperature day 20-22° C., night 15-18° C.) until the time of application. […]

LOLPE (Lolium perenne) [6] = test: PE action under various irrigation conditions, test method 6; conditions: PE application, g of AS/ha: (A) 90, (B) 1200, (C) 140, (A)+(B)+(C) 90 + 1200 + 140
Experimental: as §1, §2, §3

[7] = tested on: MATCH (Matricaria chamomilla); test: as above; conditions: PE application; irrigation from below; g of AS/ha: (A) 90, (B) 1200, (C) 140, (A)+(B)+(C) 90 + 1200 + 140
Experimental: as §1, §2, §3

STEME (Stellaria media) = test: Action under various soil conditions (soil types), test method 7; conditions: IU/EC73 soil versus IU soil; g of AS/ha: (A) 90, (B) 1200, (C) 140, (A)+(B)+(C) 90 + 1200 + 140
Experimental: as §1, §2, §3

[8] = tested on: MATCH (Matricaria chamomilla); test: as above; conditions: g of AS/ha: (A) 90, (B) 1200, (C) 140, (A)+(B)+(C) 90 + 1200 + 140
Experimental: as §1, §2, §3

Structure (SMILES) | activity ALOMY sensitive [1] [%] | activity ALOMY resistant [2] [%] | activity HORVS IU soil (crop plant) ([3]; IU soil) [%] | Difference of the soil types, HORVS ([3]; IU/EC73 soil versus IU soil) [%] | activity AVEFA pH 7.4 (AVEFA (Avena fatua); soil pH 7.4) [%] | activity AVEFA pH 8.4 (AVEFA (Avena fatua); soil pH 8.4) [%] | activity HORVS (crop plant; visual, scale 0-100%) [4] [%] | activity VIOAR (visual, scale 0-100%) (VIOAR (Viola arvensis)) [%] | activity POAAN (visual, scale 0-100%) (POAAN (Poa annua)) [%] | activity LOLPE (LOLPE (Lolium perenne) [5]) [%] | activity LOLPE (LOLPE (Lolium perenne) [6]; irrigation from above) [%] | activity LOLPE (LOLPE (Lolium perenne) [6]; irrigation from below) [%] | activity MATCH [7] [%] | Difference of the soil types, STEME (STEME (Stellaria media)) [%] | activity MATCH IU soil ([8]; IU soil) [%] | Difference of the soil types, MATCH ([8]; IU/EC73 soil versus IU soil) | activity MATCH IU/EC73 soil ([8]; IU/EC73 soil) [%]
COc1nc(C)nc(NC(=O)NS(=O)(=O)c2cc(I)ccc2C(=O)O)n1 [(C)^1 iodosulfuron, iodosulfuron] | 90 | 40 | – | – | – | – | – | – | – | – | – | – | – | – | – | – | –
CSc1nnc(C(C)(C)C)c(=O)n1N [(C) metribuzin, 4-amino-6-(1,1-dimethylethyl)-3-(methylthio)-1,2,4-triazin-5(4H)-one] | 85 | 80 | 20 | −20 | 90 | 90 | 70 | 90 | 79 | 100 | 55 | 48 | 60 | −70 | 0 | +15% | 15
